Reference: PubChem BioAssay AID2060885 (Molecular Pharmacology Branch, DTP, NCI, 2025)

System: NCI-H23 complex spheroids with HUVEC/MSC, viability
Assay: Anticancer human tumor NCI-H23 cell line growth inhibition [RAS];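 further: spheroids exposed to compound for 7 days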;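 on viability, T/C: 100% = DMSO vehicle control viability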
Settings: for IC50: curve of first compound; for viability, T/C: stronger effect = lower value
Outline: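 Tumour cells grown as complex spheroids with HUVEC endothelial cells and mesenchymal stem cells, treated with RAS pathway inhibitor combinations. Each agent spans half-log steps from near clinical Cmax, or 10 microM where Cmax is unknown.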

[1] = second compound 0.00316 µM, first compound 0.0316 µM
[2] = second compound 0.00316 µM, first compound 0.1 µM
[3] = second compound 0.00316 µM, first compound 0.316 µM
[4] = second compound 0.00316 µM, first compound 1 µM
[5] = second compound 0.00316 µM, first compound 3.16 µM
[6] = second compound 0.00316 µM, first compound 10 µM
[7] = second compound 0.01 µM, first compound 0.0316 µM
[8] = second compound 0.01 µM, first compound 0.1 µM
[9] = second compound 0.01 µM, first compound 0.316 µM
[10] = second compound 0.01 µM, first compound 1 µM
[11] = second compound 0.01 µM, first compound 3.16 µM
[12] = second compound 0.01 µM, first compound 10 µM
[13] = second compound 0.0316 µM, first compound 0.0316 µM
[14] = second compound 0.0316 µM, first compound 0.1 µM
[15] = second compound 0.0316 µM, first compound 0.316 µM
[16] = second compound 0.0316 µM, first compound 1 µM
[17] = second compound 0.0316 µM, first compound 3.16 µM
[18] = second compound 0.0316 µM, first compound 10 µM
[19] = second compound 0.1 µM, first compound 0.0316 µM
[20] = second compound 0.1 µM, first compound 0.1 µM
[21] = second compound 0.1 µM, first compound 0.316 µM
[22] = second compound 0.1 µM, first compound 1 µM
[23] = second compound 0.1 µM, first compound 3.16 µM
[24] = second compound 0.1 µM, first compound 10 µM
[25] = second compound 0.316 µM, first compound 0.0316 µM
[26] = second compound 0.316 µM, first compound 0.1 µM
[27] = second compound 0.316 µM, first compound 0.316 µM
[28] = second compound 0.316 µM, first compound 1 µM
[29] = second compound 0.316 µM, first compound 3.16 µM
[30] = second compound 0.316 µM, first compound 10 µM
[31] = second compound 1 µM, first compound 0.0316 µM
[32] = second compound 1 µM, first compound 0.1 µM
[33] = second compound 1 µM, first compound 0.316 µM
[34] = second compound 1 µM, first compound 1 µM
[35] = second compound 1 µM, first compound 3.16 µM
[36] = second compound 1 µM, first compound 10 µM

Question: Which results are given for `CC(=O)OC12COC1CC(O)C1(C)C(=O)C(O)C3=C(C)C(OC(=O)C(O)C(NC(=O)OC(C)(C)C)c4ccccc4)CC(O)(C(OC(=O)c4ccccc4)C21)C3(C)C` (stereo unspecified) + C=CC(=O)N1CCN(c2nc(OCC3CCCN3C)nc3c(F)c(-c4nc(N)cc(C)c4C(F)(F)F)c(Cl)cc23)C(C)C1?
Answer: IC50 (second compound 0.00316 µM): < 31.6 nM; IC50 (second compound 0.01 µM): < 31.6 nM; IC50 (second compound 0.0316 µM): < 31.6 nM; IC50 (second compound 0.1 µM): < 31.6 nM; IC50 (second compound 0.316 µM): < 31.6 nM; IC50 (second compound 1 µM): < 31.6 nM; viability, T/C [1]: 12.9%; viability, T/C [2]: 17%; viability, T/C [3]: 17.9%; viability, T/C [4]: 16.9%; viability, T/C [5]: 25.1%; viability, T/C [6]: 41.9%; viability, T/C [7]: 14.2%; viability, T/C [8]: 17.6%; viability, T/C [9]: 13.1%; viability, T/C [10]: 18.7%; viability, T/C [11]: 19.1%; viability, T/C [12]: 28.7%; viability, T/C [13]: 15.5%; viability, T/C [14]: 17.1%; viability, T/C [15]: 15.6%; viability, T/C [16]: 15.9%; viability, T/C [17]: 23.9%; viability, T/C [18]: 26.2%; viability, T/C [19]: 12.4%; viability, T/C [20]: 15.2%; viability, T/C [21]: 11.8%; viability, T/C [22]: 14.9%; viability, T/C [23]: 22.8%; viability, T/C [24]: 22.1%; viability, T/C [25]: 11.1%; viability, T/C [26]: 13.9%; viability, T/C [27]: 14.3%; viability, T/C [28]: 16.3%; viability, T/C [29]: 18.9%; viability, T/C [30]: 26.8%; viability, T/C [31]: 11.8%; viability, T/C [32]: 14.7%; viability, T/C [33]: 14.4%; viability, T/C [34]: 15.4%; viability, T/C [35]: 21.5%; viability, T/C [36]: 20.9%

Question: What does the source list for `NC1c2ccccc2OC12CCN(c1cnc3c(N4CCCc5ncccc54)n[nH]c3n1)CC2` (stereo unspecified) + C=CC(=O)N1CCN(c2nc(OCC3CCCN3C)nc3c(F)c(-c4nc(N)cc(C)c4C(F)(F)F)c(Cl)cc23)C(C)C1?
Answer: IC50 (second compound 0.00316 µM): < 31.6 nM; IC50 (second compound 0.01 µM): < 31.6 nM; IC50 (second compound 0.0316 µM): < 31.6 nM; IC50 (second compound 0.1 µM): < 31.6 nM; IC50 (second compound 0.316 µM): < 31.6 nM; IC50 (second compound 1 µM): < 31.6 nM; viability, T/C [1]: 36.1%; viability, T/C [2]: 31.4%; viability, T/C [3]: 23.7%; viability, T/C [4]: 20.7%; viability, T/C [5]: 17.5%; viability, T/C [6]: 12.2%; viability, T/C [7]: 32.9%; viability, T/C [8]: 29.2%; viability, T/C [9]: 18.9%; viability, T/C [10]: 16.9%; viability, T/C [11]: 11.4%; viability, T/C [12]: 10.4%; viability, T/C [13]: 27.9%; viability, T/C [14]: 25%; viability, T/C [15]: 18.2%; viability, T/C [16]: 13.6%; viability, T/C [17]: 11.8%; viability, T/C [18]: 10.1%; viability, T/C [19]: 25%; viability, T/C [20]: 21.6%; viability, T/C [21]: 17.8%; viability, T/C [22]: 14.8%; viability, T/C [23]: 11.8%; viability, T/C [24]: 8.71%; viability, T/C [25]: 23.1%; viability, T/C [26]: 23.4%; viability, T/C [27]: 19.4%; viability, T/C [28]: 14.8%; viability, T/C [29]: 12.2%; viability, T/C [30]: 11.7%; viability, T/C [31]: 26.8%; viability, T/C [32]: 24.6%; viability, T/C [33]: 20.1%; viability, T/C [34]: 13.1%; viability, T/C [35]: 12.8%; viability, T/C [36]: 11.2%

Question: With `Nc1ccn(C2OC(CO)C(O)C2(F)F)c(=O)n1` (stereo unspecified) + C=CC(=O)N1CCN(c2nc(OCC3CCCN3C)nc3c(F)c(-c4nc(N)cc(C)c4C(F)(F)F)c(Cl)cc23)C(C)C1 as the compound, how does the IC50 (second compound 0.00316 µM) read?
Answer: < 3.16 nM

Question: What about the IC50 (second compound 0.01 µM) of the same compound?
Answer: < 3.16 nM

Question: And the IC50 (second compound 0.0316 µM)?
Answer: < 3.16 nM

Question: What about the IC50 (second compound 0.1 µM) of the same compound?
Answer: < 3.16 nM

Question: What about the IC50 (second compound 0.316 µM) of the same compound?
Answer: < 3.16 nM

Question: What about the IC50 (second compound 1 µM) of the same compound?
Answer: < 3.16 nM

Question: What about the viability, T/C (second compound 0.00316 µM, first compound 0.00316 µM) of the same compound?
Answer: 29.9%

Question: What about the viability, T/C (second compound 0.00316 µM, first compound 0.01 µM) of the same compound?
Answer: 4.17%

Question: What about the viability, T/C [1] of the same compound?
Answer: 1.98%

Question: What about the viability, T/C [2] of the same compound?
Answer: 2.04%

Question: What about the viability, T/C [3] of the same compound?
Answer: 2.83%

Question: And the viability, T/C [4]?
Answer: 2.41%

Question: And the viability, T/C (second compound 0.01 µM, first compound 0.00316 µM)?
Answer: 34.3%

Question: And the viability, T/C (second compound 0.01 µM, first compound 0.01 µM)?
Answer: 3.54%

Question: And the viability, T/C [7]?
Answer: 2.75%

Question: What about the viability, T/C [8] of the same compound?
Answer: 2.39%

Question: What about the viability, T/C [9] of the same compound?
Answer: 2.2%

Question: What about the viability, T/C [10] of the same compound?
Answer: 2.54%

Question: What about the viability, T/C (second compound 0.0316 µM, first compound 0.00316 µM) of the same compound?
Answer: 24.9%

Question: What about the viability, T/C (second compound 0.0316 µM, first compound 0.01 µM) of the same compound?
Answer: 3.04%

Question: What about the viability, T/C [13] of the same compound?
Answer: 2.2%

Question: What about the viability, T/C [14] of the same compound?
Answer: 2.3%

Question: And the viability, T/C [15]?
Answer: 2.25%

Question: What about the viability, T/C [16] of the same compound?
Answer: 3.18%

Question: What about the viability, T/C (second compound 0.1 µM, first compound 0.00316 µM) of the same compound?
Answer: 20.2%

Question: And the viability, T/C (second compound 0.1 µM, first compound 0.01 µM)?
Answer: 2.99%

Question: And the viability, T/C [19]?
Answer: 2.63%

Question: And the viability, T/C [20]?
Answer: 1.97%

Question: And the viability, T/C [21]?
Answer: 2.37%

Question: What about the viability, T/C [22] of the same compound?
Answer: 2.09%

Question: And the viability, T/C (second compound 0.316 µM, first compound 0.00316 µM)?
Answer: 24.8%

Question: And the viability, T/C (second compound 0.316 µM, first compound 0.01 µM)?
Answer: 3.77%

Question: And the viability, T/C [25]?
Answer: 2.05%

Question: What about the viability, T/C [26] of the same compound?
Answer: 1.47%

Question: What about the viability, T/C [27] of the same compound?
Answer: 2.4%

Question: And the viability, T/C [28]?
Answer: 2.12%

Question: And the viability, T/C (second compound 1 µM, first compound 0.00316 µM)?
Answer: 21.4%

Question: And the viability, T/C (second compound 1 µM, first compound 0.01 µM)?
Answer: 4.48%

Question: What about the viability, T/C [31] of the same compound?
Answer: 3.25%

Question: And the viability, T/C [32]?
Answer: 2.34%

Question: What about the viability, T/C [33] of the same compound?
Answer: 2.71%

Question: And the viability, T/C [34]?
Answer: 2.67%
